PMC11823594, “Durlobactam in combination with β-lactams to combat Mycobacterium abscessus” (Antimicrobial Agents and Chemotherapy, 2024)
Entries after “also recorded” stand apart in the source; their conditions may differ. Where two headings read alike, the source gives them in different places.

How the values were obtained:
PBP B [1] = target: T1, PBP B (Mycobacterium abscessus, UniProt B1MP31); assay: Mass spectrometry of covalent adduct formation; type: binding; conditions: protein:drug 1:20, 2 h; mass accuracy ±5 Da; (−) = no change
T1 sequence (B1MP31 entry or part of it): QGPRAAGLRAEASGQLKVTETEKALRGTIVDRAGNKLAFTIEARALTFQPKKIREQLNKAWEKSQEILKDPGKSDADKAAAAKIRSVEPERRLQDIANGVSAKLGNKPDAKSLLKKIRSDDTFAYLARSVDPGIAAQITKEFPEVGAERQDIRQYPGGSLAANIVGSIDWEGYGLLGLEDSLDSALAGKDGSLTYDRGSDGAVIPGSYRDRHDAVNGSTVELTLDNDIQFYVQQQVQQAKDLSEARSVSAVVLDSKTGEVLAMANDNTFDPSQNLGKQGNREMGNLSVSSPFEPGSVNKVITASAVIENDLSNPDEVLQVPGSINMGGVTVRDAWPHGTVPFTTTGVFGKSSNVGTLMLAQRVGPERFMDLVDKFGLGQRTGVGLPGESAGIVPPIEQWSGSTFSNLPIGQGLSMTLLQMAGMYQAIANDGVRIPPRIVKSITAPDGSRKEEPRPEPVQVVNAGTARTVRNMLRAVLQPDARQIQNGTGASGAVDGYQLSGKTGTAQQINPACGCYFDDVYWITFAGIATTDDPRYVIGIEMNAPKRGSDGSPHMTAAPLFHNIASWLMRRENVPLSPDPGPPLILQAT
Method: Truncated sequences of LDT1-5, DDC, PBP B, and PBP-lipo (Δ1–41) were generated by Celtek Biosciences and cloned into the pET28(a) + vector with a tobacco etch virus (TEV) protease cleavage site before the start codon. Clones were transformed into Escherichia coli BL21 (DE3) and grown to an OD600 of 0.6–0.8. […] Cell pellets were collected and stored at −20°C overnight, then resuspended in a buffer containing 50 mM Tris (pH 8.0), 400 mM sodium chloride, and 1 mM Tris (2-carboxyethyl) phosphine hydrochloride (TCEP), followed by sonication and centrifugation. The supernatant was purified using a His Prep FF 16/10 column (GE Healthcare) and eluted with 500 mM imidazole. Eluted protein was dialyzed overnight at 4°C in a buffer with 50 mM Tris (pH 8.0), 150 mM sodium chloride, and 0.5 mM TCEP in the presence of His-tagged TEV protease. To remove the His tag, the mixture was passed over the His Prep FF 16/10 column again.
The purified proteins listed above were incubated at room temperature with β-lactams or BLIs at a molar ratio of 1:20 for 2 h. The reactions were then quenched with acetonitrile and diluted to 1 mL with 0.1% formic acid in water. Samples were analyzed using a quadrupole time-of-flight (Q-TOF) Waters Synapt-G2-Si electrospray ionization mass spectrometer (ESI-MS) and a Waters Acquity H class ultra-performance liquid chromatography (UPLC) system, equipped with a BEH C18 1.7 µm column (2.1 × 50 mm). The MS was tuned with the following settings: capillary voltage set at 3 kV, sampling cone at 35 V, source offset at 35, source temperature of 100°C, desolvation temperature of 500°C, cone gas flow rate at 100 L/h, desolvation gas flow rate at 800 L/h, and nebulizer set at 6.0. The mobile phases consisted of 0.1% formic acid in water and 0.1% formic acid in 100% acetonitrile, with gradient elution from 10% to 90% of […] over 11 min. The system’s mass accuracy was ±5 Da.

[2] = Predicted average unbound steady-state plasma concentration (fCss,avg) at clinically relevant doses; parameters: species or system human; conditions: median unbound average steady-state plasma concentration, continuous infusion; daily dose DUR 4,000, AVI 1,500, IPM 4,000, CFT 1,800, AMX 1,500, SULO 1,000, CXM 1,500, SUL 4,000, TBP 1,800 mg
BlaMab = BlaMab (Mycobacterium abscessus, UniProt B1MCI3); assay: Ki,app for the β-lactamase; type: biochemical
BlaMab, sequence (B1MCI3 entry or part of it): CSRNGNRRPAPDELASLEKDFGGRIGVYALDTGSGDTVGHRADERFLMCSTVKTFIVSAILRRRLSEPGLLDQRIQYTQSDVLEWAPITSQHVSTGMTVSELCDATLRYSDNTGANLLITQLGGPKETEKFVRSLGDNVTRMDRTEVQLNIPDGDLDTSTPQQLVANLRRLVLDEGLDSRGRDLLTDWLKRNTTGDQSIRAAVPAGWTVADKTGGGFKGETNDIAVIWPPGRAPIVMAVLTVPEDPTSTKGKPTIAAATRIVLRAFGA

Mab ATCC 19977 = assay: Static drug-concentration time-kill (SCTK) assay with CART analysis; type: cell-based, Mycobacterium abscessus; conditions: clinically achievable concentrations, over 10 days; AVI 4 mg/L; DUR 12 mg/L + SUL 7 mg/L
PBP-lipo = target: T2, PBP-lipo (Mycobacteroides abscessus, UniProt B1MDC3); assay: Steady-state kinetics with nitrocefin (Ki,app); type: biochemical; conditions: for Ki: nitrocefin at 5 × Km, read-out: Ki,app PBP-lipo (converted); for Ratio of fCss,avg to Ki,app, PBP-lipo: in parentheses in Table 3
T2 construct: made in house; host or cells: Escherichia coli BL21 (DE3)
T2 sequence (B1MDC3 entry or part of it): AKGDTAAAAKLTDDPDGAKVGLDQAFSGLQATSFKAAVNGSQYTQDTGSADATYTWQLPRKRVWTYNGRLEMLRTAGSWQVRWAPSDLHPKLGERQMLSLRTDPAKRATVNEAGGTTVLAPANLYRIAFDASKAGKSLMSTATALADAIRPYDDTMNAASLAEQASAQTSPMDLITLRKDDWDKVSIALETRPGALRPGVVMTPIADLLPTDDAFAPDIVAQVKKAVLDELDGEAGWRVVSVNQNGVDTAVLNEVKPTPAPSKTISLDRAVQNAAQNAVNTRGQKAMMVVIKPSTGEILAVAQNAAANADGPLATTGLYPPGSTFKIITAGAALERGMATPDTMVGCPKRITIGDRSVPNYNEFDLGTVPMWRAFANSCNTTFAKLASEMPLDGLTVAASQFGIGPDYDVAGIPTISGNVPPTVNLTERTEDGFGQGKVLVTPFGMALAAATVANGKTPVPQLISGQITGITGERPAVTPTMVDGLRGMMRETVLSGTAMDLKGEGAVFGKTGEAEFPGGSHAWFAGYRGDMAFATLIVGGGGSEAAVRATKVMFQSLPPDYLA
Method: (§1) Steady-state kinetic studies were conducted using purified LDTs and PBPs (LDT1-5, PBP B, PBP-lipo, and DDC) as previously described ([20]). The assays were performed using a BioTek Synergy2 multimode reader in conjunction with Gen5 analysis software. Increasing concentrations of NCF (Δε482 = 17,400 M^⁻¹ cm^⁻¹) were used, while fixed concentrations of the LDTs and PBPs were monitored for changes in absorbance at 482 nm over a time period of 0 to 10 min. To determine reaction velocities, a 0.25 cm path length was employed. The steady-state kinetic parameters (Vmax, kcat, and Km) were obtained by fitting the data to the Henri-Michaelis-Menten equation using a nonlinear least-squares fit in Origin 8.1 software (OriginLab, Northampton, MA). The reaction rate (v) at a given substrate concentration ([S]) was calculated according to the following equations: […]
To determine the apparent inhibition constants (Ki,app) for β-lactams and BLIs, the following experimental condition was employed: NCF as a substrate at a concentration of 5 × Km, LDT/ PBP enzymes with fixed concentration, and β-lactams and BLIs with various concentrations. Changes in absorbance at 482 nm were measured over a period of 0–30 min for each concentration of β-lactams and BLIs. Data were linearized using a Dixon plot, plotting the inverse changes in absorbance (1/ΔA) against the concentrations of β-lactams and BLIs. The observed Ki,app was determined directly from the Dixon plot, and these values were corrected for substrate concentration and affinity for the LDT using the following equation:
(§2) Ki,app=observed Ki,app/1+[NCF]/Km NCF

DDC = DDC (Mycobacteroides abscessus, UniProt B1MDJ1); assay: Differential scanning fluorimetry thermal shift assay; type: binding; conditions: 2 h; read-out: ΔTm DDC (Tm = 35.5°C)
DDC, sequence (B1MDJ1 entry or part of it): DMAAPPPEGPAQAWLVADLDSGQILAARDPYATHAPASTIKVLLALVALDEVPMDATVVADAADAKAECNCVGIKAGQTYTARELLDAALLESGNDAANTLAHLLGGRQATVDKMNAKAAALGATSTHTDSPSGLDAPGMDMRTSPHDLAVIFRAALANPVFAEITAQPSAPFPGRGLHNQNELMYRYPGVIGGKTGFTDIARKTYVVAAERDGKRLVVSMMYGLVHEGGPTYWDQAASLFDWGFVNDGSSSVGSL
Method: (§3) Each purified protein (2–4 µM) was incubated with or without β-lactams or BLIs at a molar ratio of 1:50 at room temperature for 2 h. Following incubation, SYPRO Orange dye (10× concentration; Fisher Scientific) was added. The samples were then brought to a final volume of 30 µL with PBS buffer and subjected to thermal cycling in a qPCR machine (Bio-Rad), with the temperature increasing from 25°C to 95°C at a rate of 1°C/min. Fluorescence changes were monitored with an excitation wavelength of 492 nm. The experiments were conducted at least in duplicate, and the melting temperature (Tm) was determined for each sample. The Tm values were then compared to those of the protein in the absence of β-lactams or BLIs to ascertain the change in melting temperature (ΔTm).

PBP B [3] = target: T1, PBP B; assay: as above; type: binding; conditions: 2 h; read-out: ΔTm PBPB (Tm = 31.6°C)
Method: as §3

LDT5 = LDT5 (Mycobacterium abscessus, UniProt B1MM58); assay: Steady-state kinetics with nitrocefin (Ki,app); type: biochemical; conditions: in parentheses in Table 3
LDT5, sequence (B1MM58 entry or part of it): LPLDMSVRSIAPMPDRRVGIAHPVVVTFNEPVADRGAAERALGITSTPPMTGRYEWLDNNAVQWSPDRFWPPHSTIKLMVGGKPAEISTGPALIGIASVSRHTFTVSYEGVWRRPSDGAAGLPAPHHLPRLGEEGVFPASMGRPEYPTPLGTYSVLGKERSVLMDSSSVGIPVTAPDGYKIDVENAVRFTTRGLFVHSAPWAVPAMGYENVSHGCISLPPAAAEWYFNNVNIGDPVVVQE
Method: as §1, with “Increasing concentrations of NCF (Δε482 = 17,400 M^⁻¹ cm^⁻¹) were used, while fixed concentrations of the LDTs and PBPs were monitored for changes in absorbance at 482 nm over a time period of 0 to 10 min.” left out
Changes in absorbance at 482 nm were measured over a period of 0–30 min for each concentration of β-lactams and BLIs. Data were linearized using a Dixon plot, plotting the inverse changes in absorbance (1/ΔA) against the concentrations of β-lactams and BLIs. The observed Ki,app was determined directly from the Dixon plot, and these values were corrected for substrate concentration and affinity for the LDT using the following equation:
as §2

[4] = read-out: Ki,app BlaMab (converted)

SMILES: CC1(C)S[C@@H]2[C@H](NC(=O)[C@H](N)c3ccc(O)cc3)C(=O)N2[C@H]1C(=O)O [Amoxicillin, amoxicillin]
- Observed MW (+ change in mw), PBP B (62,915) (PBP B [1]): 63,280 (+365) Da
- fCss,avg [2]: 6 mg/L
- Ki (BlaMab; read-out: Ki,app BlaMab): < 13.7 µM
- Bacterial killing (log10 reduction) in time-kill (Mab ATCC 19977): no killing effect
- Ki (PBP-lipo): 0.274 µM

SMILES: NC(=O)[C@@H]1CC[C@@H]2CN1C(=O)N2OS(=O)(=O)O [Avibactam, avibactam]
- ΔTm (DDC): 4.2 °C
- ΔTm (PBP B [3]): -0.2 °C
- Observed MW (+ change in mw), PBP B (62,915) (PBP B [1]): 63,180 (+265) Da
- fCss,avg [2]: 5 mg/L
- Ki (BlaMab; [4]): 0.3 µM
- Bacterial killing (log10 reduction) in time-kill (Mab ATCC 19977): no effect on bacterial growth inhibition or killing; also recorded: no effect
- Ratio of fCss,avg to Ki,app, PBP-lipo (PBP-lipo): 1
- Ki (PBP-lipo): 18.9 µM

SMILES: CO/N=C(\C(=O)N[C@@H]1C(=O)N2C(C(=O)O)=C(COC(N)=O)CS[C@H]12)c1ccco1 [Cefuroxime, cefuroxime]
- Ratio of fCss,avg to Ki,app, LDT5 (LDT5): 7.5
- Observed MW (+ change in mw), PBP B (62,915) (PBP B [1]): 63,279 (+364) Da
- fCss,avg [2]: 12 mg/L
- Ratio of fCss,avg to Ki,app, PBP-lipo (PBP-lipo): 0.5
- Ki (PBP-lipo): 51.8 µM

SMILES: CC1=C[C@@H]2CN(C(=O)N2OS(=O)(=O)O)[C@@H]1C(N)=O [Durlobactam, durlobactam]
- Ratio of fCss,avg to Ki,app, LDT5 (LDT5): 145
- ΔTm (DDC): 0.4 °C
- ΔTm (PBP B [3]): -0.4 °C
- Observed MW (+ change in mw), PBP B (62,915) (PBP B [1]): 63192 (+277) Da
- fCss,avg [2]: 16 mg/L
- Ki (BlaMab; [4]): 0.00397 µM
- Bacterial killing (log10 reduction) in time-kill (Mab ATCC 19977): ~ 2 log10 CFU/mL
- Ratio of fCss,avg to Ki,app, PBP-lipo (PBP-lipo): 133
- Ki (PBP-lipo): 0.361 µM

SMILES: C[C@@H](O)[C@H]1C(=O)N2C(C(=O)O)=C(SCCN=CN)C[C@H]12 [Imipenem, imipenem]
- Ratio of fCss,avg to Ki,app, LDT5 (LDT5): 0.4
- Observed MW (+ change in mw), PBP B (62,915) (PBP B [1]): 63,215 (+300) Da
- fCss,avg [2]: 12 mg/L
- Ki (BlaMab; [4]): 17 µM
- Ratio of fCss,avg to Ki,app, PBP-lipo (PBP-lipo): 22
- Ki (PBP-lipo): 2 µM

SMILES: C[C@@H](O)[C@H]1C(=O)N2C(C(=O)O)=C(S[C@H]3CC[S@@+]([O-])C3)S[C@H]12 [Sulopenem, sulopenem]
- Ratio of fCss,avg to Ki,app, LDT5 (LDT5): 1.5
- ΔTm (DDC): 10.4 °C
- ΔTm (PBP B [3]): 1 °C
- Observed MW (+ change in mw), PBP B (62,915) (PBP B [1]): 63,264 (+349) Da
- fCss,avg [2]: 2 mg/L
- Ratio of fCss,avg to Ki,app, PBP-lipo (PBP-lipo): 25
- Ki (PBP-lipo): 0.229 µM

SMILES: C[C@@H](O)[C@H]1C(=O)N2C(C(=O)O)=C(SC3CN(C4=NCCS4)C3)[C@H](C)[C@H]12 [Tebipenem, tebipenem]
- fCss,avg [2]: 1.7 mg/L
- Ki (BlaMab; [4]): < 13 µM
- Ratio of fCss,avg to Ki,app, PBP-lipo (PBP-lipo): 0.05
- Ki (PBP-lipo): 88.7 µM
